Reference: patent publication US11248003B2, “Pyrimidine derivative having effect of inhibiting cancer cell growth and pharmaceutical composition containing same” (ONCOBIX CO., LTD., priority 2017, dated 2022)
pIC50: −log10 of the molar value. Read-outs that look alike come from different tables or passages of the source.

Tests used:
MET kinase = MET kinase (Homo sapiens (Human), UniProt P08581); assay: Kinase inhibitory activity, MET; format: biochemical; conditions: 33P-ATP filter assay, about 40 minutes at room temperature
MET kinase, sequence (P08581 25-1390): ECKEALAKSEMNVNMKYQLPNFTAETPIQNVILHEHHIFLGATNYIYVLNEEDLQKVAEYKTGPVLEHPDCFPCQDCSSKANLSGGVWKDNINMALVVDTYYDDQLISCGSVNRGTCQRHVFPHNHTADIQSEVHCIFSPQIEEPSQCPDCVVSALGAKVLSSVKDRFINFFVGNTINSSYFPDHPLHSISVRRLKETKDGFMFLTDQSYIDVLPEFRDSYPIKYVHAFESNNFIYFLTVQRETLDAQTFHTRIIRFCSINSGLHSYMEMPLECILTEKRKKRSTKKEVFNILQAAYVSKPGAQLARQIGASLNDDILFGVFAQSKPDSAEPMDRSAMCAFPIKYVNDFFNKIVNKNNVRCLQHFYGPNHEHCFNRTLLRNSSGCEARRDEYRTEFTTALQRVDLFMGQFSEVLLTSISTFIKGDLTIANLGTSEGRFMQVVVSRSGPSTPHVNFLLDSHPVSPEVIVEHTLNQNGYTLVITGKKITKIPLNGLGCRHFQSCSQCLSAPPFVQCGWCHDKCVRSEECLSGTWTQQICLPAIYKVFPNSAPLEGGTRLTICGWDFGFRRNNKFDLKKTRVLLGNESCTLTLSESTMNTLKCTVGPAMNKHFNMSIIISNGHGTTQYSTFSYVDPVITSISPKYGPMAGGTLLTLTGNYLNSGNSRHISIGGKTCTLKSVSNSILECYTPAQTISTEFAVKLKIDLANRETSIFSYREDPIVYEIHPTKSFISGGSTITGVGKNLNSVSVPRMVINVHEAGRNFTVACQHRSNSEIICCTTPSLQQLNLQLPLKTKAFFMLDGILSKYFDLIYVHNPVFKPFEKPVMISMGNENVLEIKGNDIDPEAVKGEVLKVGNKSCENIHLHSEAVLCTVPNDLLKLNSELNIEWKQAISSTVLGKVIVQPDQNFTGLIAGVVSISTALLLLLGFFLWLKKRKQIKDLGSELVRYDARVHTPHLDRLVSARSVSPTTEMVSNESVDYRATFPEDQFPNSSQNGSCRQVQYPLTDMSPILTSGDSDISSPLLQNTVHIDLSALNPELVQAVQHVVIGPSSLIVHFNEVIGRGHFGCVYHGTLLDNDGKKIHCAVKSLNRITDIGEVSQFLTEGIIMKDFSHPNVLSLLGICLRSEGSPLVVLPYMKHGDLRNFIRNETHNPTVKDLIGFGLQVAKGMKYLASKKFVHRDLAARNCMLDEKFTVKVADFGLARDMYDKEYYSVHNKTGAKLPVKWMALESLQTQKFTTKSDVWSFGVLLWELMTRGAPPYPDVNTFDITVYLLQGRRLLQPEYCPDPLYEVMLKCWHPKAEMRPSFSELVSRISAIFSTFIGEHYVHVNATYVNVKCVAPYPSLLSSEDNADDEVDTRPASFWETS
Protocol: The kinase inhibitory activity was measured by the following method:
The compound to be evaluated (DMSO solution) and Mg/ATP were added to proceed the reaction.
After about 40 minutes at room temperature, the reaction was stopped by the addition of 10 μL of 0.5% phosphoric acid.
10 μL of 0.5% reaction solution was spotted onto a P30 filtermat.
Washed 4 times for about 4 minutes in 0.425% phosphoric acid. Washed once in methanol, and then dried and analyzed by scintillation counting to measure IC50 value.

[1] = test system: Ba/F3 cell line expressing EGFR DEL19/T790M/C797S; assay: Inhibitory effect on cancer cell growth (MTT), Ba/F3 DEL19/T790M/C797S; format: cell-based, Murine; conditions: for pIC50: read-out: DEL19/T790M/C797S (IC50); for inhibitory activity on C797S mutant EGFR-expressed cancer cell lines, comparison in words: both Ba/F3 triple mutant lines of Table 2
Protocol: (§1) The inhibitory effect on the growth of a C797S-expressed triple mutant Ba/F3 cancer cell line was measured for the compounds obtained in the examples above. The kinase assay and anticancer efficacy activity using a Ba/F3 stable cell line were measured by the following method:
(§2) 1. […] All constructs were retroviral vectors and finally completed viral particles for infection.
(§3) 2. Construction of Ba/F3 stable cell lines: Murine lymphoid cells undergo IL-3 dependent growth. […] Briefly, each construct was infected into Ba/F3 cell lines, and after 48 hours, IL-3 was removed with media exchange and cells were cultured. However, puromycin selection was performed for wild type EGFR.
(§4) 3. Identification of Ba/F3 stable cell lines: All stable cell lines were subjected to western blotting to confirm the expression of each construct and EGFR activity (EGFR wild type and L858R were omitted).
(§5) 5. Anticancer effect verification by MTT assay: 2×10^3 cells were seeded in a 96-well plate. After 24 hours, each of the drugs was treated in a dose-dependent manner, incubated for 72 hours, reacted with 15 μL of MTT reagent for 4 hours, and then 100 μL of 10% SDS was added thereto and incubated for 24 hours. […] MTT results were analyzed by measuring IC50 values through prism software.

[2] = test system: Ba/F3 cell line expressing EGFR L858R/T790M/C797S; assay: Inhibitory effect on cancer cell growth (MTT), Ba/F3 L858R/T790M/C797S; format: cell-based, Murine; conditions: read-out: L858R/T790M/C797S (IC50)
Protocol: as §1, §2, §3, §4, §5

[3] = Mus musculus, BaF3, Ba/F3 stable cell line, MTT, 72 hours, GI50
[4] = Ba/F3 stable cell line, MTT, 72 hours, GI50

| pIC50 (MET kinase) | pIC50 ([1]; Mus musculus, BaF3, 72 h) | pIC50 ([2]; Mus musculus, BaF3, 72 h) | pIC50 [1, 3] | pIC50 [2, 3] | pIC50 [1, 4] | pIC50 [2, 4] | Structure (SMILES) | inhibitory activity on C797S mutant EGFR-expressed cancer cell lines, comparison in words [1] |
| --- | --- | --- | --- | --- | --- | --- | --- | --- |
| 9.00 |  |  | 6.68 | 6.80 |  |  | COc1cc(N2CCC(N3CCN(C)CC3)CC2)ccc1Nc1ncc(Cl)c(Nc2ccccc2N(C)S(C)(=O)=O)n1 [Example 1, N-(2-((5-chloro-2-((2-methoxy-4-(4-(4-methylpiperazin-1-yl)piperidin-1-yl)phenyl)amino)pyrimidin-4-yl)amino)phenyl)-N-methylmethanesulfonamide] |  |
|  |  |  | 6.49 | 6.27 |  |  | COc1cc(N2CCC(N(C)C)CC2)ccc1Nc1ncc(Cl)c(Nc2ccccc2N(C)S(C)(=O)=O)n1 [Example 3, N-(2-((5-chloro-2-((4-(4-(dimethylamino)piperidin-1-yl)-2-methoxyphenyl)amino)pyrimidin-4-yl)amino)phenyl)-N-methylmethanesulfonamide] |  |
| 6.92 |  |  |  |  | 5.30 | 5.40 | COc1cc(C2CCNCC2)ccc1Nc1ncc(Cl)c(Nc2ccccc2NS(C)(=O)=O)n1 [TRE-069] | very less active |

More lines, now with the values behind:

| Structure (SMILES) | pIC50 (MET kinase) | pIC50 ([1]; Mus musculus, BaF3, 72 h) | pIC50 ([2]; Mus musculus, BaF3, 72 h) | pIC50 [1, 3] | pIC50 [2, 3] | pIC50 [1, 4] | pIC50 [2, 4] | inhibitory activity on C797S mutant EGFR-expressed cancer cell lines, comparison in words [1] |
| --- | --- | --- | --- | --- | --- | --- | --- | --- |
| COc1cc(N2CCC(N3CCN(C)CC3)CC2)ccc1Nc1ncc(Cl)c(Nc2ccccc2P(C)(C)=O)n1 [Brigatinib] | 7.15 | 6.25 | 6.07 |  |  |  |  | very less active |
| COc1cc(N2CCC(N3CCN(C)CC3)CC2)ccc1Nc1ncc(Cl)c(Nc2cc(F)ccc2N(C)S(C)(=O)=O)n1 [Example 2, N-(2-((5-chloro-2-((2-methoxy-4-(4-(4-methylpiperazin-1-yl)piperidin-1-yl)phenyl)amino)pyrimidin-4-yl)amino)-4-fluorophenyl)-N-methylmethanesulfonamide] |  |  |  | 6.65 | 6.27 |  |  |  |
